Measured values reported in US11078228B2, “Ectonucleotidase inhibitors and methods of use thereof” (Calithera Biosciences, Inc., priority 2018, dated 2021).
Read-outs that look alike come from different tables or passages of the source.

Key:
PDE3 enzyme = assay: Eurofins Safety Screen Panel: PDE3; assay type: biochemical; conditions: 10 μM
Description: (§1) Using Compound 9, the activity of cell surface CD39 was assessed using K562 cells expressing human CD39 and Kinase-Glo. Activity of recombinant human ENTPD2 and ENTPD3 was assessed using a malachite green assay. […] Compound 9 was screened in the Eurofins Safety Screen Panel and the Eurofins Express Diversity Kinase Profile Panel. In the Safety Panel, 1/87 targets were inhibited at >50% at 10 μM of Compound 9. The PDE3 enzyme was inhibited at 59%.

recombinant human ENTPD3 = recombinant human ENTPD3 (Homo sapiens (Human), UniProt O75355); assay: Recombinant human ENTPD3 malachite green assay; assay type: biochemical
Chain of recombinant human ENTPD3 (O75355 whole entry): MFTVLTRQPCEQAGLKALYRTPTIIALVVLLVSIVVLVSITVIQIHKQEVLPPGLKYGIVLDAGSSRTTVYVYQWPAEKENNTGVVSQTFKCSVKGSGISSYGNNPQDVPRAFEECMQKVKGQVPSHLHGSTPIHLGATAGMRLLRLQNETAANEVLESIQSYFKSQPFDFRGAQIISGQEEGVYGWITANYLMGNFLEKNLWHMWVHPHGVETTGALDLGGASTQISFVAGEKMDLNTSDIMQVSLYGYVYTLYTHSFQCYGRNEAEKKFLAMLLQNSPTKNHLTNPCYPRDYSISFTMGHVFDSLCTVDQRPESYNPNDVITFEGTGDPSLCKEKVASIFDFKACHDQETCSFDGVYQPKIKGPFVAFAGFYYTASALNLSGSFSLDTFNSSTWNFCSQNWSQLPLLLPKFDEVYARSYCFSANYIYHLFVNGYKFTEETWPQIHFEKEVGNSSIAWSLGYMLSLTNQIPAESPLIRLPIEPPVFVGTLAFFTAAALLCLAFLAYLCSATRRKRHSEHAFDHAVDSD
Description: as §1

human plasma CD73 = human plasma CD73 (Homo sapiens (Human), UniProt P21589); assay: Inhibition of CD73 in human plasma, LC/MS conversion of 15N5-AMP into 15N5-ADO; assay type: biochemical
Chain of human plasma CD73 (P21589 27-574): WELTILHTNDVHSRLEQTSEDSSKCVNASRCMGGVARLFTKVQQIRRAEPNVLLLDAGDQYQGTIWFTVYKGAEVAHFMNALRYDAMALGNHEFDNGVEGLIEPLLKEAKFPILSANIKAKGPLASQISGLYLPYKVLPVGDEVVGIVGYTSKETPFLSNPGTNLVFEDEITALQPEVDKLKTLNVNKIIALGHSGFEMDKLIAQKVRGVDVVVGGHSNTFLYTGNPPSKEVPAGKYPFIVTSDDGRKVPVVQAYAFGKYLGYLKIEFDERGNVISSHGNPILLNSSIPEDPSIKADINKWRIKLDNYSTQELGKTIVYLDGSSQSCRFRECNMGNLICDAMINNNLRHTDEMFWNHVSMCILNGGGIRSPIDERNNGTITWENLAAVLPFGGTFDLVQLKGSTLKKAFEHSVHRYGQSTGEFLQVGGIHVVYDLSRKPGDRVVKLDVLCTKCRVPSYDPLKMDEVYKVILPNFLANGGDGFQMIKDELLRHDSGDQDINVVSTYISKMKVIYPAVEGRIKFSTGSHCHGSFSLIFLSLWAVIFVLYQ
Description: (§2) The potency of Compound 9 was evaluated against recombinant CD73 and CD73-expressing SK-MEL-28 cells using a malachite green assay. Inhibition of CD73 in plasma was measured using LC/MS to assess conversion of ^15N5-AMP into ^15N5-ADO. FIG. 4A indicates the nanomolar inhibition of CD73 cells from both human and mouse sources. […] Inhibition of CD73 in plasma was measured using LC/MS to assess conversion of ^15N5-AMP into ^15N5-ADO.

EG7 tumors = assay: Tumor-directed immune response: flow cytometry of excised EG7 tumors; assay type: in vivo, mouse; conditions: 50 mg/kg orally BID from day one, tumors excised day 14
Description: EG7 cells were implanted subcutaneously into C57BL/6 mice. Compound 9 (50 mg/kg) or vehicle was orally administered BID starting day one post implant (N=10 per group). Tumors were excised on day 14 and analyzed by flow cytometry. Compound 9 increased the % CD8+ cells of CD45+ cells as shown in FIG. 1A (* indicates p<0.05). EG7 cells were implanted subcutaneously into C57BL/6 mice. Anti-CD8 antibody was dosed i.p. on days −1, 0, 5, and 10. Compound 9 (50 mg/kg) or vehicle was orally dosed BID starting on day 1.

CT26 cells = assay: CT26 subcutaneous tumor model in Balb/c mice, tumor volume; assay type: in vivo, mouse; conditions: 100 mg/kg orally BID from day one post implant
Description: Compounds of the invention show potent anti-tumor effects, evidenced in reducing tumor volume in a mouse model. In one model, EG7 cells were implanted subcutaneously into C57BL/6 mice. Compound 9 or vehicle was orally administered BID starting day one post implant (N=10 per group). […] In another model, EG7 cells were implanted subcutaneously into C57BL/6 mice. Compound 9 was orally administered BID (100 mg/kg) starting day one post implant (N=10 per group). Vehicle was orally administered BID starting day one post implant (N=20) until day five post implant, at which time, mice were randomized by tumor volume into two groups. Compound 9 (100 mg/kg) or vehicle was orally administered BID to N=10 per group starting day six post implant. […] FIGS. 13B-D show individual replications of this measurement for each dosing. FIG. 13B is vehicle. FIG. 13C is dosing of Compound 9 started on day 1. FIG. 13D is Compound 9 started on day 6. In another model, CT26 cells were implanted subcutaneously into Balb/c mice. 100 mg/kg Compound 9 or vehicle was orally administered BID starting day one post implant (N=10 per group).

recombinant CD73 [1] = molecular target: T1, recombinant CD73 (Homo sapiens (Human), UniProt P21589); assay: Assay 2: Inhibition of the CD73 enzyme in vitro (0.05 nM CD73, 1 hour 37° C., Malachite Green); assay type: biochemical; conditions: 0.05 nM CD73, 50 μM AMP, 1 hour at 37° C.
Procedure, shortened: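 Free phosphate was quantified from absorbance at 630 nm against a phosphate standard curve. This was read 5 min after Malachite Green was added at room temperature. Beforehand, the recombinant soluble enzyme reacted for 1 hour at 37° C.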
Target sequence in this assay (P21589 27-547): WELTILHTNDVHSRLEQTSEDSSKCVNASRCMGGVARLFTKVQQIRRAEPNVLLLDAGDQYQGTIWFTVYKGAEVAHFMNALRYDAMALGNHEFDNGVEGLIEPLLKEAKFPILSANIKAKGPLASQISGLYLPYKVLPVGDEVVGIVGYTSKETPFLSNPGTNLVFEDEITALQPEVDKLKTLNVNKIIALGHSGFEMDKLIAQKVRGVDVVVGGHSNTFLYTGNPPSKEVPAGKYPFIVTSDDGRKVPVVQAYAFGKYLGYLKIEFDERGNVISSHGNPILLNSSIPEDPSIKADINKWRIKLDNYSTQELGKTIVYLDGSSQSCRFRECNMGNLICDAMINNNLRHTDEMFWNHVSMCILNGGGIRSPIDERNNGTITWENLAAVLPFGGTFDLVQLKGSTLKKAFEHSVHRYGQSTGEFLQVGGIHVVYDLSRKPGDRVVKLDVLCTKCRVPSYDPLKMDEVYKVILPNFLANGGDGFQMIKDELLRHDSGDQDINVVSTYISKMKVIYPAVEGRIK

recombinant CD73 [2] = molecular target: T1, recombinant CD73; assay: Potency against recombinant CD73, malachite green assay; assay type: biochemical
Description: as §2
Target sequence in this assay (P21589 27-574): as the sequence (P21589 27-574) above

human CD39 = human CD39 (Homo sapiens (Human), UniProt P49961); assay: Cell surface CD39 activity, K562 cells expressing human CD39, Kinase-Glo; assay type: cell-based
Chain of human CD39 (P49961 whole entry): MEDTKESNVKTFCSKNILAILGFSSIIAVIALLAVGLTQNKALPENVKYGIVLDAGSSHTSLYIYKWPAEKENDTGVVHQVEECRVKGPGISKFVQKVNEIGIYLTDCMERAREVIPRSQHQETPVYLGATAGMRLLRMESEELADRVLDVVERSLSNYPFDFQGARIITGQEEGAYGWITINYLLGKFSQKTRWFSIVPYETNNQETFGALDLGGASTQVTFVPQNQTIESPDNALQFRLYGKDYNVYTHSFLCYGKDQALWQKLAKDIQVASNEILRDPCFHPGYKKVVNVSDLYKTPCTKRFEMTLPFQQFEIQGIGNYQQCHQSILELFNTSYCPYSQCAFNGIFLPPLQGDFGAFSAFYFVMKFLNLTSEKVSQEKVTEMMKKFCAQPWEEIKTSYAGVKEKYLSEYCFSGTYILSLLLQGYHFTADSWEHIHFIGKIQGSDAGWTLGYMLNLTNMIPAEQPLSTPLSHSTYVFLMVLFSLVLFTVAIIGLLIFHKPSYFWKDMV
Description: as §1

A375 cells = assay: Viability of A375 cells, CellTiter-Glo; assay type: cell-based, human; conditions: 100 μM, 3 days
Description: Viability of EG7 and A375 cells treated with 100 μM Compound 9 was measured using CellTiter-Glo after 3 days. Proliferation of human CD8+ T cells was measured by flow cytometry after 4 days of treatment with 100 μM Compound 9 using CellTrace CFSE Cell Proliferation Kit.

recombinant human ENTPD2 = recombinant human ENTPD2 (Homo sapiens (Human), UniProt Q9Y5L3); assay: Recombinant human ENTPD2 malachite green assay; assay type: biochemical
Chain of recombinant human ENTPD2 (Q9Y5L3 whole entry): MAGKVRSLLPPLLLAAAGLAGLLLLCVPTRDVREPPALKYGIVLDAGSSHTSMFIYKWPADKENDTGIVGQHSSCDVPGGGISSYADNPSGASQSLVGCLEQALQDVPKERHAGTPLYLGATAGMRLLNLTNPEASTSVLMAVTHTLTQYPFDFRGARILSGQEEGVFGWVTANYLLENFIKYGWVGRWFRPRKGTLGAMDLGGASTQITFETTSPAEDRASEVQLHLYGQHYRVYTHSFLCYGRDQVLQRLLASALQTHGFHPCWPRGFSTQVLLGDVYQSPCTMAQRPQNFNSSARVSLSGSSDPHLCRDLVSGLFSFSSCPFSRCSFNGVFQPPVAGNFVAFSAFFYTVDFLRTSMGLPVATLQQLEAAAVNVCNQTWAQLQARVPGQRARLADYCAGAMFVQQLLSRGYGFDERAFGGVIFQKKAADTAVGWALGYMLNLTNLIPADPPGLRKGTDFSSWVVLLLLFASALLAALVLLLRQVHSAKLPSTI
Description: as §1

[3] = molecular target: CD73 activity in cancer patient serum (Homo sapiens (Human), UniProt P21589); assay: CD73 activity in cancer patient serum, LC/MS conversion of 15N5-AMP to 15N5-ADO; assay type: biochemical; conditions: TNAP inhibitor present
Chain of CD73 activity in cancer patient serum (P21589 27-574): as the sequence (P21589 27-574) above
Description: Serum was procured from Discovery Life Sciences. Serum from head and neck squamous cell carcinoma (HNSCC), ovarian cancer, triple-negative breast cancer and esophageal cancer patients were incubated with a serial dilution of Compound 9 in the presence of a TNAP inhibitor. Conversion of ^15N5-AMP to ^15N5-ADO was measured by LC/MS. FIG. 10A depicts the sub-nanomolar inhibition of HNSCC serum. FIG. 10B depicts the sub-nanomolar inhibition of ovarian cancer serum. FIG. 10C depicts the sub-nanomolar inhibition of TNBC serum. FIG. 10D depicts the sub-nanomolar inhibition of esophageal cancer serum.

Human CD8+ T cells = assay: Reversal of AMP-mediated suppression of CD8+ T cells; assay type: cell-based; conditions: T-cell, 96 h, 4 days
Description: Human CD8+ T cells were labeled with CellTrace CFSE and then pre-incubated with an adenosine deaminase inhibitor and Compound 9 or vehicle for 20 minutes. 20 μM AMP was added for assessing T cell proliferation and CD25 expression. 10 μM AMP was added for assessing cytokine production. T cells were activated with α-CD3, α-CD28, and hIL2. After 4 days, proliferation and CD25 expression were assessed by flow cytometry and cytokine levels in the supernatant were measured by ELISA. EC50s were determined using a four-parameter dose-response curve equation.

[4] = test system: Eurofins Safety Screen Panel (87 targets); assay: Eurofins Safety Screen Panel; conditions: 10 μM
Description: as §1

Which PDE3 enzyme inhibition (PDE3 enzyme) does the source give for `C#C[C@@]1(O)[C@@H](COC(Cc2ccc(N3CCCNC3=O)cc2)(C(=O)O)C(=O)O)O[C@@H](n2cnc3c(N)nc(Cl)nc32)[C@@H]1O` [Compound 9, 2-(((2R,3S,4R,5R)-5-(6-amino-2-chloro-9H-purin-9-yl)-3-ethynyl-3,4-dihydroxytetrahydrofuran-2-yl)methoxy)-2-(4-(2-oxotetrahydropyrimidin-1 (2H)-yl)benzyl)malonic acid] here?
The PDE3 enzyme inhibition was 59%.

What about the IC50 (recombinant human ENTPD3) of the same compound?
Its IC50 is > 10 µM.

What about the IC50 (human plasma CD73) of the same compound?
Its IC50 is 0.38 nM.

And the “% CD8+ cells of CD45+ cells” value (EG7 tumors)?
Its value is “increased”.

What about the “tumor volume, CT26” value (CT26 cells) of the same compound?
The value was “decrease in tumor volume compared to vehicle”.

And the IC50 (recombinant CD73 [1])?
Its IC50 is 0.17 nM.

And the IC50 (recombinant CD73 [2])?
Its IC50 is 0.17 nM.

What about the IC50 (human CD39) of the same compound?
Its IC50 is > 10 µM.

What about the “% cell survival of A375 cells” value (A375 cells) of the same compound?
The value was “comparable % cell survival”.

And the IC50 (recombinant human ENTPD2)?
The IC50 was > 10 µM.

What about the “inhibition of CD73 activity in esophageal cancer serum” value ([3]; esophageal cancer serum) of the same compound?
Its value is “sub-nanomolar”.

What about the “inhibition of CD73 activity in HNSCC serum” value ([3]; head and neck squamous cell carcinoma serum) of the same compound?
The value was “sub-nanomolar”.

What about the “inhibition of CD73 activity in ovarian cancer serum” value ([3]; ovarian cancer serum) of the same compound?
The value was “sub-nanomolar”.

And the “inhibition of CD73 activity in TNBC serum” value ([3]; triple-negative breast cancer serum)?
The value was “sub-nanomolar”.

And the EC50 (Human CD8+ T cells; 10 μM AMP, ELISA, read-out: EC50 for Granzyme B production)?
The EC50 was 5.6 nM.

What about the EC50 (Human CD8+ T cells; 10 μM AMP, ELISA, read-out: EC50 for IFNγ production) of the same compound?
The EC50 was 4.5 nM.

What about the EC50 (Human CD8+ T cells; 20 μM AMP, flow cytometry, read-out: EC50 for CD8+ T cell activation (CD25 expression)) of the same compound?
Its EC50 is 9.6 nM.

What about the EC50 (Human CD8+ T cells; 20 μM AMP, flow cytometry, read-out: EC50 for CD8+ T cell proliferation) of the same compound?
Its EC50 is 11.6 nM.

And the “Safety Panel targets inhibited at >50%” value [4]?
Its value is 1/87.
